Laboratory results from patent US8309551B2, “Pyrazolopyridine, indazole, imidazopyridine, imidazopyrimidine, pyrazolopyrazine and pyrazolopyridine derivatives as stimulators of guanylate cyclase for cardiovascular disorders” (Bayer Intellectual Property GmbH, priority 2006, dated 2012).
Read-outs that look alike come from different tables or passages of the source.

System: aorta rings
Assay: Vasorelaxant effect in vitro (phenylephrine-contracted rabbit aorta rings)
Settings: Oryctolagus cuniculus, read-out: IC50 (concentration necessary to reduce the level of contraction by 50%)
Experimental: B-1. Vasorelaxant Effect in Vitro
Rabbits are stunned by a blow to the back of the neck and are exsanguinated. The aorta is removed, freed of adherent tissue, divided into rings 1.5 mm wide and placed singly in 5 ml organ baths with carbogen-gassed Krebs-Henseleit solution of the following composition (in each case mM): NaCl: 119; KCl: 4.8; CaCl2×2 H2O: 1; MgSO4×7 H2O: 1.4; KH2PO4: 1.2; NaHCO3: 25; glucose: 10, under an initial tension at 37° C. The force of contraction is detected with Statham UC2 cells, amplified and digitized via A/D converters (DAS-1802 HC, Keithley Instruments Munich), and recorded in parallel on chart recorders. A contraction is induced by adding phenylephrine to the bath cumulatively in increasing concentration. After several control cycles, the substance to be investigated is added in each further run in increasing dosage each time, and the level of contraction is compared with the level of contraction achieved in the last preceding run. The concentration necessary to reduce the level of contraction by 50% (IC50) is calculated therefrom. The standard application volume is 5 μl, and the DMSO content in the bath solution corresponds to 0.1%.

[1] = rabbit aorta rings, contraction induced by phenylephrine, 37° C., 0.1% DMSO

| Compound | IC50 [1] [nM] | IC50 [nM] |
| --- | --- | --- |
| Nc1nc(N)nc(-c2nc(Cc3ccccc3F)n3ccccc23)n1 [Example 3, 6-[3-(2-Fluorobenzyl)imidazo[1,5-a]pyridin-1-yl]-1,3,5-triazine-2,4-diamine] | 2900 |  |
| Nc1nc(N)nc(-n2nc(Cc3ccccc3F)c3ccccc32)n1 [Example 2, 6-[3-(2-Fluorobenzyl)-1H-indazol-1-yl]-1,3,5-triazine-2,4-diamine] | 300 |  |
| Nc1nc(N)nc(-c2nc(Cc3ccccc3F)c3ncccn23)n1 [Example 4, 6-[8-(2-Fluorobenzyl)imidazo[1,5-a]pyrimidin-6-yl]-1,3,5-triazine-2,4-diamine] |  | 215 |
| Nc1nc(N)nc(-n2nc(Cc3ccccc3F)c3ncccc32)n1 [Example 1, 6-[3-(2-Fluorobenzyl)-1H-pyrazolo[4,3-b]pyridin-1-yl]-1,3,5-triazine-2,4-diamine] | 240 |  |
| Nc1cc(N)nc(-c2nc(Cc3ccccc3F)c3ncccn23)n1 [Example 7, 2-[8-(2-Fluorobenzyl)imidazo[1,5-a]pyrimidin-6-yl]pyrimidine-4,6-diamine] |  | 1050 |
